Assay results taken from ChEMBL document CHEMBL1131837, “Synthesis of new (benzimidazolyl)piperazines with affinity for the 5-HT1A receptor via Pd(0) amination of bromobenzimidazoles” (Bioorg Med Chem Lett, 1999).
pKi: −log10 of the molar value.

Tests used:
[1] = target: T1, 5-hydroxytryptamine receptor 1A (Rattus norvegicus, UniProt P19327); experiment: In vitro binding affinity towards 5-hydroxytryptamine 1A receptor was determined using [3H]8-OH-DPAT as radioligand in rat cerebral cortex membranes; […]; assay type: cell membranes
T1 sequence (P19327 whole entry): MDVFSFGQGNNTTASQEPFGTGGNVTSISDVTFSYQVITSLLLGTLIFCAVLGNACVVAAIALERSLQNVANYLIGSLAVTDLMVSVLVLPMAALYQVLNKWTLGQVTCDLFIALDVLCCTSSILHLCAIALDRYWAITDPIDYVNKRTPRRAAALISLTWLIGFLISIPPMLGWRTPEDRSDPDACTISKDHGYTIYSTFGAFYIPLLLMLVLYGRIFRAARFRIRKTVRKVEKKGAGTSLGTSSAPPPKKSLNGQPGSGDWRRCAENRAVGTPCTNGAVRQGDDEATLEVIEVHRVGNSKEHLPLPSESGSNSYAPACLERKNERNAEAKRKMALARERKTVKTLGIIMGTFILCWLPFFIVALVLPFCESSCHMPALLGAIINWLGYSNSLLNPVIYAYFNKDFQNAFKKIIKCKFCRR

[2] = target: T1, 5-hydroxytryptamine receptor 1A; experiment: In vitro binding affinity towards 5-hydroxytryptamine 1A receptor was determined using [3H]8-OH-DPAT as radioligand in rat cerebral cortex membranes; assay type: cell membranes, Membrane

Ki [1]	Compound	pKi [2]
Not Active	c1ccc(C(c2ccccc2)(c2ccccc2)n2cnc3c(N4CCNCC4)cccc32)cc1	
	O=C1C2CCCN2C(=O)N1CCCCN1CCN(c2cccc3[nH]cnc23)CC1 (centres undefined)	8.92
	CN1CCN(c2cccc3[nH]cnc23)CC1	8.33
Not Active	CN1CCN(c2cccc3c2ncn3C(c2ccccc2)(c2ccccc2)c2ccccc2)CC1	
